The target of the test is T1, human P2X3 (Homo sapiens, UniProt P56373).
T1 construct: expressed in transfected cells
T1 sequence (P56373 1-397): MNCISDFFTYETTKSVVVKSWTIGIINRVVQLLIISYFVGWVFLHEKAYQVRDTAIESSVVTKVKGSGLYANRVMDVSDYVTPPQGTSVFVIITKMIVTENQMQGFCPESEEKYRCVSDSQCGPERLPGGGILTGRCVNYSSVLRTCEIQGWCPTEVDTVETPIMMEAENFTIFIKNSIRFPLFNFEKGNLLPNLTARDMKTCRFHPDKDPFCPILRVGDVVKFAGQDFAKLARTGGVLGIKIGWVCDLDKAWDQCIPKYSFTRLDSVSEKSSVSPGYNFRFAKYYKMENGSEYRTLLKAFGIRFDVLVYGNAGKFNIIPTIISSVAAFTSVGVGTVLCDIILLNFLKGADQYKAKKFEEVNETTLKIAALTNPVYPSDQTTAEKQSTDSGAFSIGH
The test is described as follows: Intracellular Calcium Measurement to Assess Antagonist Affinity (FLIPR, Fluo-4, agonist α,β-meATP). The class given is cell-based. The settings on record: Intracellular Calcium Measurement to Assess Antagonist Affinity assay; [α,β-meATP]final=EC50. An excerpt:
Generation of a Human P2X3 and P2X2/3 Stable Cell Line—Human P2X3 receptor cDNA (Accession number NM_002559) was subcloned as a 5′XhoI and 3′HindIII fragment into the expression vector pcDNA5/FRT (Invitrogen). Human P2X2 receptor cDNA (Accession number NM_174873) was subcloned as a 5′EcoRI and 3′NotI fragment into the expression vector pIRESneo2 (BD Biosciences Clontech). The human P2X3 expression construct was transfected using Lipofectamine 2000 (Invitrogen) into Flp-in—293 cells (Invitrogen) according to the manufacturer's directions. Cells positive for flp-mediated recombination of […] P2X3 were selected using 150 μg/ml hygromycin. The stable human P2X3 cell line was co-transfected with the human P2X2 expression construct using Lipofectamine 2000 as above and co-transfected cells selected using […] hygromycin and 1 mg/ml G418. The stable P2X3 cell line was propagated in DMEM, 10% FBS, 100 μg/ml hygromycin, and 100 units/ml penicillin and 100 μg/ml streptomycin, and maintained at 37° and 95% humidity. The stable P2X2/3 cell line was propagated as above with the addition of 500 μg/ml G418.
Intracellular Calcium Measurement to Assess Antagonist Affinity—A fluorescent imaging plate reader (FLIPR; Molecular Devices) was used to monitor intracellular calcium levels using the calcium-chelating dye Fluo-4 (Molecular Probes). The excitation and emission wavelengths used to monitor fluorescence were 488 nm and 530 nm, respectively. Cells expressing either human P2X3 or human P2X2/3 were plated at a density of 20,000 cells/well (20 μl/well) in 384-well black-walled plates approximately 20 hours before beginning the assay. On the day of the assay 20 μl of loading buffer (Hank's balanced salt solution, 2.5 mM CaCl2, 20 mM HEPES, 0.1% BSA, 2.5 mM probenecid, TR-40, Fluo-4, and 138 mM NMDG substituted for NaCl) is added and cells dye-loaded for […] in the dark at room temperature. Ten minutes prior to adding agonist, the antagonist was added in a volume of 10 μl and allowed to incubate at room temperature. During this period fluorescence data is collected at 3 sec intervals followed by 10 sec intervals. The agonist, α,β-meATP, is added at a 6× concentration ([α,β-meATP]final=EC50). Following agonist addition fluorescence was measured at 5 sec intervals and analyzed based on the increase in peak relative fluorescence units (RFU) compared to the basal fluorescence. Peak fluorescence was used to determine the inhibitory effect at each concentration of antagonist by the following equation: % Inhibition=100*(1−((RFU(drug)−RFU(control))/(RFU(DMSO only)−RFU(control))))
For orientation: Calcium flux is commonly read through the fluorescence of an indicator in the cells.
A word on the IC50: it is the midpoint of a concentration-inhibition curve. For the molecule `C[C@@H](NC(=O)c1cc(C2=NO[C@H](c3ccccn3)C2)cc(-c2ccc(Cl)cn2)c1)c1ccc(F)cn1` [3-(5-chloropyridin-2-yl)-N-[(1R)-1-(5-fluoropyridin-2-yl)ethyl]-5-[(5S)-5-pyridin-2-yl-4,5-dihydroisoxazol-3-yl]benzamide], the IC50 was found to be 110 nM.
Turning to `Cc1ccc(-c2cc(C(=O)N[C@H](C)c3ccc(C(F)(F)F)nc3)cc(C3=NO[C@H](c4ccccn4)C3)c2)nc1` [3-(5-methylpyridin-2-yl)-5-[(5S)-5-pyridin-2-yl-4,5-dihydroisoxazol-3-yl]-N-{(1R)-1-[6-(trifluoromethyl)pyridin-3-yl]ethyl}benzamide], the IC50 came to 10 nM.
Regarding `Cc1ccc(-c2cc(C(=O)N[C@H](C)c3ncc(F)cc3F)cc(C3=NOC4(CCC4)C3)c2)nc1` [N-[(1R)-1-(3,5-difluoropyridin-2-yl)ethyl]-3-(5-methylpyridin-2-yl)-5-(5-oxa-6-azaspiro[3.4]oct-6-en-7-yl)benzamide], the IC50 was determined as 58 nM.
Consider `Cc1ccc(-c2cc(C(=O)N[C@H](C)c3ccc(F)cn3)cc(C3=NO[C@H](c4ccccn4)C3)c2)nc1` [N-[(1R)-1-(5-fluoropyridin-2-yl)ethyl]-3-(5-methylpyridin-2-yl)-5-[(5S)-5-pyridin-2-yl-4,5-dihydroisoxazol-3-yl]benzamide], for which the IC50 worked out at 20 nM.

For the origin of these results see patent US8461185B2, “P2X3 receptor antagonists for treatment of pain” (Merck Sharp & Dohme Corp., priority 2007, dated 2013).
